# Source: US8541427B2, “Phenyl-substituted 2-imino-3-methyl pyrrolo pyrimidinone compounds as BACE-1 inhibitors, compositions, and their use” (Merck, Sharp & Dohme, Corp., priority 2008, dated 2013)
# Read-outs that look alike come from different tables or passages of the source.
# Columns and labels:
# CYP2C9 = CYP2C9 (Homo sapiens (Human), UniProt P11712); assay: CYP Inhibition Assay, CYP2C9; type: in vitro ADME; settings: human liver microsomes;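 note: probe substrate held close to its Km, with metabolite formation quantified by LC-MS/MS against a calibration curve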
# Sequence of CYP2C9 (P11712 whole entry): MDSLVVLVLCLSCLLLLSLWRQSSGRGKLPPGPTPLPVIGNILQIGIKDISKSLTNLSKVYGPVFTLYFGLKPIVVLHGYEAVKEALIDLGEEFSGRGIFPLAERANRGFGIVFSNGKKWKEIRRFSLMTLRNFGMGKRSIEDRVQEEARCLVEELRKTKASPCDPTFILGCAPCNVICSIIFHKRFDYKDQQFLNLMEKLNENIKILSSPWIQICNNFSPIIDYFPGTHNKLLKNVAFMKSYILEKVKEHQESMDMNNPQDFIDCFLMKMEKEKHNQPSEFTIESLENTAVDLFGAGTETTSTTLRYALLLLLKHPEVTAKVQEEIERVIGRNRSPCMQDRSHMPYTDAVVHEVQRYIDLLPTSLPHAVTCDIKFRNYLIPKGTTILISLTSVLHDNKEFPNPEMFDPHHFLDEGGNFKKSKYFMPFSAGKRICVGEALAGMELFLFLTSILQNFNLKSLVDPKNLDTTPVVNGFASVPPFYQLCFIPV
# hERG [1] = molecular target: T1, hERG (Homo sapiens (Human), UniProt Q12809); assay: hERG screening, Rubidium Efflux (hERG-CHO cells); type: cell-based; settings: CHO cells expressing hERG; for inhibition at 30 min, 1.5 uG/mL: pH 7.4, 1.5 uG/mL, read-out: HERG Rb efflux % Inhib 1.5 uG/mL; for inhibition at 30 min, 5 uG/mL: pH 7.4, 5 uG/mL, read-out: HERG Rb efflux % Inhib 5 uG/mL
# T1 sequence (Q12809 whole entry): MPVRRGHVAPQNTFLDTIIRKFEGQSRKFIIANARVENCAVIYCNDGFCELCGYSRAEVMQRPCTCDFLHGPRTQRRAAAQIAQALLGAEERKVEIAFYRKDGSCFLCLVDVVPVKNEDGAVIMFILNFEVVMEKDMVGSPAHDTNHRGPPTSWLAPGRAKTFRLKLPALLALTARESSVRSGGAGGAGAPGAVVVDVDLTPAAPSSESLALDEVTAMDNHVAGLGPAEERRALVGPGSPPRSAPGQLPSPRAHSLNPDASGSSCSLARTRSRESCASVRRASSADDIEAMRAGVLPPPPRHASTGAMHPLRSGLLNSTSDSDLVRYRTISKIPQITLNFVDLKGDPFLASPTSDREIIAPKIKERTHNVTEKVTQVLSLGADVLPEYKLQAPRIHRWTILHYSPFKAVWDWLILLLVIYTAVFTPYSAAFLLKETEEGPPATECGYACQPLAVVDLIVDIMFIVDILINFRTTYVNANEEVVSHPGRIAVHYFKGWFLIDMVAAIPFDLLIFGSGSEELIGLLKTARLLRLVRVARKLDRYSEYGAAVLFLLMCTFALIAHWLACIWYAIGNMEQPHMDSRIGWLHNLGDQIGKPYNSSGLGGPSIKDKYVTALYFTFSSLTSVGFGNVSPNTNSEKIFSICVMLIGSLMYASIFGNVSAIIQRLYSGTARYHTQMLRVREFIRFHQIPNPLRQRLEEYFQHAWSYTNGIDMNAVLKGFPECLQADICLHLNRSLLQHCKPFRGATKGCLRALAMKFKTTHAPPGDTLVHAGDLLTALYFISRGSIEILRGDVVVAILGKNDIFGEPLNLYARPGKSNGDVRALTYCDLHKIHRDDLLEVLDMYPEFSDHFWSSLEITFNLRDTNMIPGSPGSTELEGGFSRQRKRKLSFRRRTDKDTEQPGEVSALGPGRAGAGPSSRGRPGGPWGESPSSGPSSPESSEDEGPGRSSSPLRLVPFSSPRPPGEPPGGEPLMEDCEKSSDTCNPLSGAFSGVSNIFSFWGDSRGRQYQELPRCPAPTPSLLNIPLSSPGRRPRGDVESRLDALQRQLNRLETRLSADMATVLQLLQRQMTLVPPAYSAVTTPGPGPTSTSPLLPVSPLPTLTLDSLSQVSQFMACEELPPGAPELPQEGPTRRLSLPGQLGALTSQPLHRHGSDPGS
# CYP2D6 = CYP2D6 (Homo sapiens (Human), UniProt P10635); assay: CYP Inhibition Assay, CYP2D6; type: in vitro ADME; settings: human liver microsomes
# Sequence of CYP2D6 (P10635 whole entry): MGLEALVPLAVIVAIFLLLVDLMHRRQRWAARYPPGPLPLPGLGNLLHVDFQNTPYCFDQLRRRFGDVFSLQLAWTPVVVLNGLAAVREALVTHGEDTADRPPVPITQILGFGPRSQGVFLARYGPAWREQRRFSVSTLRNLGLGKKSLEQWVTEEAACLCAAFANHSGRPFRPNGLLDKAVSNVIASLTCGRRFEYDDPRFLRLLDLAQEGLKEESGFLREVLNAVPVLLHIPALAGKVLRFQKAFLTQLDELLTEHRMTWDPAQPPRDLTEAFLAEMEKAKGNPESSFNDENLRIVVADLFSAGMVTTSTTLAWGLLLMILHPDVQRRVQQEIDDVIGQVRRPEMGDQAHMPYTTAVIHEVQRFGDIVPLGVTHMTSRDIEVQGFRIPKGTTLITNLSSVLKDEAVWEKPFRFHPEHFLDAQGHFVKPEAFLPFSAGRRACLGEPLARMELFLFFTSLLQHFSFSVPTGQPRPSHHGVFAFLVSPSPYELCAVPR
# [2] = molecular target: BACE1 (Aβ40 in HEK293-APPswe/lon cells) (Homo sapiens (Human), UniProt P56817); assay: BACE Inhibitor Whole Cell IC50 Determination Using HEK293-APPswe/lon Cells (Aβ40); type: cell-based; settings: 4 hours
# Sequence of BACE1 (Aβ40 in HEK293-APPswe/lon cells) (P56817 46-501): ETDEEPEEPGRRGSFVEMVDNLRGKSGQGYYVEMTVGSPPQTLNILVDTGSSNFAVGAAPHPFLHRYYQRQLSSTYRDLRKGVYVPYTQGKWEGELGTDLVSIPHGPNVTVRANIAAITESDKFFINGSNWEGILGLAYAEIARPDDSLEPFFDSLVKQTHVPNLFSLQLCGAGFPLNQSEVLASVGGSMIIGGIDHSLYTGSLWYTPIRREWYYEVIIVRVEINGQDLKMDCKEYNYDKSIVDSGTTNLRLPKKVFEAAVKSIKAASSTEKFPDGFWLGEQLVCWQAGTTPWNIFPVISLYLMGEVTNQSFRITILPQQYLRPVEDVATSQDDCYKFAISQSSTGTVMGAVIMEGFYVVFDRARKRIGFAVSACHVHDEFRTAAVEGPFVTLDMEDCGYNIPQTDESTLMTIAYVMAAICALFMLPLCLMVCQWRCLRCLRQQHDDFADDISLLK
# [3] = molecular target: soluble human BACE1 catalytic domain (Homo sapiens (Human), UniProt P56817); assay: BACE1 HTRF FRET Assay; type: biochemical; settings: Ki calculated from IC50 with Cheng-Prusoff equation;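 note: cleavage of a quenched APP Swedish mutant peptide (QSY7 quencher, Europium donor) measured as rise in 620 nm fluorescence after 1.5 h at 30 °C, inhibition suppresses signal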
# Sequence of soluble human BACE1 catalytic domain (P56817 75-416): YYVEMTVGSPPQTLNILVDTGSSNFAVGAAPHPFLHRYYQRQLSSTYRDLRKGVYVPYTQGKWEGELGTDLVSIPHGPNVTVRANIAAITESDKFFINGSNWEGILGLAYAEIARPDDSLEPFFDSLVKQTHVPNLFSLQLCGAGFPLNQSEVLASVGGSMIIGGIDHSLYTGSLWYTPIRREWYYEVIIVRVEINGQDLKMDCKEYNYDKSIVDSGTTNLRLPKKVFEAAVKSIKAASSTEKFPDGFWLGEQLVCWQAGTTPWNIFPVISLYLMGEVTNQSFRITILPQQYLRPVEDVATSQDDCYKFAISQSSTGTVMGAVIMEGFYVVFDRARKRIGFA
# CYP3A4 = CYP3A4 (Homo sapiens (Human), UniProt P08684); assay: CYP Inhibition Assay, CYP3A4; type: in vitro ADME; settings: human liver microsomes;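 note: CYP probe substrate held near its Km, inhibition judged from metabolite formation quantified by LC-MS/MS against a standard curve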
# Sequence of CYP3A4 (P08684 whole entry): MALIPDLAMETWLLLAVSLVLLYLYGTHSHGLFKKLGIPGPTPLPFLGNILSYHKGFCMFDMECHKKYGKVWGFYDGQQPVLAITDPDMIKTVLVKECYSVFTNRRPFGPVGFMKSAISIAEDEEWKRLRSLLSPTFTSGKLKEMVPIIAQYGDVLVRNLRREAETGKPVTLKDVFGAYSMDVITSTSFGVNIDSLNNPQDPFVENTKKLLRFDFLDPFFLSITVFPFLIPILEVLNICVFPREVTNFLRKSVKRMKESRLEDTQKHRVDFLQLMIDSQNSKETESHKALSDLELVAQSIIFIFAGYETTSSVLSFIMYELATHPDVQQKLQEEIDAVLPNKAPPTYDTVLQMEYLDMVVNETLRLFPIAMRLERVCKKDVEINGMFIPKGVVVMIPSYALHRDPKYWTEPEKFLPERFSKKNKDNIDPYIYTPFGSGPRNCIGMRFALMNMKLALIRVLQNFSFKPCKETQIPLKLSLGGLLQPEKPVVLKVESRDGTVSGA
# hERG [4] = molecular target: T1, hERG; assay: hERG screening, IonWorks Quattro (hERG L929 cells); type: cell-based; settings: L929 cells expressing hERG; for inhibition at 5 min, 1 uM: read-out: HERG Ionworks % Inhib 1 uM; for inhibition at 5 min, 10 uM: read-out: HERG Ionworks % Inhib 10 uM
# human liver Cathepsin D = human liver Cathepsin D (Homo sapiens (Human), UniProt P07339); assay: Human Cathepsin D FRET Assay; type: biochemical; settings: selectivity with respect to Cathepsin D vs BACE1
# Sequence of human liver Cathepsin D (P07339 65-412): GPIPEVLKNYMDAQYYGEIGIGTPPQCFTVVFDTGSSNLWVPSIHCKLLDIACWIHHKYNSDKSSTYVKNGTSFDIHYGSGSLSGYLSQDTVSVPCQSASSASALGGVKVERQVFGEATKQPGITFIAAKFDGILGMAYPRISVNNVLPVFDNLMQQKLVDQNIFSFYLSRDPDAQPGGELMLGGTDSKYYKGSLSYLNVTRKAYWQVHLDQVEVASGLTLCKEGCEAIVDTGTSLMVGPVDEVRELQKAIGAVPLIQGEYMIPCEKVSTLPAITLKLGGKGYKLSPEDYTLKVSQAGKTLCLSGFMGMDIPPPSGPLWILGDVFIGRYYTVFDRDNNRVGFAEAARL
# Sequence of human liver Cathepsin D (P07339 169-412): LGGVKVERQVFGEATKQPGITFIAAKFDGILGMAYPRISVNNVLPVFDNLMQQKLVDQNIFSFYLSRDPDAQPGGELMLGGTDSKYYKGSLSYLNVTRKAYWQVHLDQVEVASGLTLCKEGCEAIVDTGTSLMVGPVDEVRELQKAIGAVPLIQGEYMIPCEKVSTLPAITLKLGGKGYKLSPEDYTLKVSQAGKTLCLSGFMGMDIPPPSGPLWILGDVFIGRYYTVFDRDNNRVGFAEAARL
# [5] = 30 min pre-incubation with NADPH, read-out: CYP 2C9 IC50 pre
# [6] = co-incubation, read-out: CYP 2C9 IC50 co
# [7] = 30 min pre-incubation with NADPH, read-out: CYP 2D6 IC50 pre
# [8] = co-incubation, read-out: CYP 2D6 IC50 co
# [9] = 30 min pre-incubation with NADPH, read-out: CYP 3A4 IC50 pre
# [10] = co-incubation, read-out: CYP 3A4 IC50 co
Structure (SMILES),IC50 (CYP2C9; [5]) [µM],IC50 (CYP2C9; [6]) [µM],"inhibition at 30 min, 1.5 uG/mL (hERG [1]) [%]","inhibition at 30 min, 5 uG/mL (hERG [1]) [%]",IC50 (CYP2D6; [7]) [µM],IC50 (CYP2D6; [8]) [µM],IC50 [2] [µM],Ki [3] [µM],IC50 (CYP3A4; [9]) [µM],IC50 (CYP3A4; [10]) [µM],"inhibition at 5 min, 1 uM (hERG [4]) [%]","inhibition at 5 min, 10 uM (hERG [4]) [%]",CathD Selectivity (human liver Cathepsin D)
COc1nc(N2C[C@H]3C(=O)N(C)C(N)=N[C@@]3(c3c(F)cc(F)c(F)c3F)C2)nc(C)c1F [Example 29],> 30,> 30,-4,3,> 30,> 30,,,,,,,
Cc1nc(N2C[C@H]3C(=O)N(C)C(=N)N[C@@]3(c3ccc(F)cc3)C2)nc(C)c1F [Example 28],> 30,> 30,13,14,~30,23.3,0.114,0.064,> 30,> 30,,,
CCc1nc(N2C[C@H]3C(=O)N(C)C(=N)N[C@@]3(c3ccc(F)cc3F)C2)nc(OC)c1F [Example 32],> 20,> 20,,,> 20,> 20,0.026,0.0053,> 20,> 20,19,95,310
COc1nc(N2C[C@H]3C(=O)N(C)C(=N)N[C@@]3(c3cc(F)ccc3F)C2)nc(OC)c1F [Example 9],~30,~30,,,> 30,> 30,0.066,0.0056,18.6,> 30,12,71,386
COc1nc(N2C[C@H]3C(=O)N(C)C(=N)N[C@@]3(c3cccc(C#N)c3)C2)nc(C)c1F [Example 36],> 20,> 20,,,> 20,> 20,0.063,0.014,> 20,> 20,3,37,1202
COc1nc(N2C[C@H]3C(=O)N(C)C(=N)N[C@@]3(c3ccc(F)cc3F)C2)nc(C2CC2)c1F [Example 38],> 20,> 20,,,> 20,> 20,0.031,0.0027,> 20,> 20,12,63,209
CCc1nc(N2C[C@H]3C(=O)N(C)C(=N)N[C@@]3(c3ccc(F)cc3)C2)nc(OC)c1F [Example 30],> 30,> 30,,,> 30,> 30,0.022,0.0061,> 30,> 30,2,31,163
COc1nc(N2C[C@H]3C(=O)N(C)C(=N)N[C@@]3(c3ccc(F)cc3)C2)nc(OC)c1F [Example 27],> 30,> 30,,,~30,14.7,0.0615,0.0044,4.2,> 30,2,51,1063
COc1nc(N2C[C@H]3C(=O)N(C)C(=N)N[C@@]3(c3cc(F)ccc3F)C2)nc(C2CC2)c1Cl [Example 35],~20,~20,,,> 20,> 20,0.09,0.0065,~20,> 20,5,23,634
CCc1nc(N2C[C@H]3C(=O)N(C)C(=N)N[C@@]3(c3cc(F)ccc3F)C2)nc(OC)c1F [Example 31],> 20,> 20,,,> 20,> 20,0.031,0.0069,> 20,> 20,21,88,596
